The values that follow come from US12195464B2, “Lumateperone bis-tosylate salts and crystals and methods for manufacture thereof” (INTRA-CELLULAR THERAPIES, INC., priority 2018, dated 2025).

The conditions of data set [1]: free base form; cited from earlier work.
A further data set relates to muscarinic. The conditions noted are these: receptor associated with cognitive and metabolic side effects; cited from earlier work.
The next data set relates to NMDA and AMPA signaling. The conditions noted are these: especially in the medial prefrontal cortex (mPFC); indirectly via D1 interaction; cited from earlier work.
Data set [2] in a line: solubility in organic solvents. It is filed as physicochemical. The conditions noted are these: free base, variety of organic solvents.
For a further data set, the target named is H1 histaminergic (Homo sapiens, UniProt P35367). The conditions noted are these: receptor associated with cognitive and metabolic side effects; cited from earlier work.
Sequence of H1 histaminergic (P35367 whole entry): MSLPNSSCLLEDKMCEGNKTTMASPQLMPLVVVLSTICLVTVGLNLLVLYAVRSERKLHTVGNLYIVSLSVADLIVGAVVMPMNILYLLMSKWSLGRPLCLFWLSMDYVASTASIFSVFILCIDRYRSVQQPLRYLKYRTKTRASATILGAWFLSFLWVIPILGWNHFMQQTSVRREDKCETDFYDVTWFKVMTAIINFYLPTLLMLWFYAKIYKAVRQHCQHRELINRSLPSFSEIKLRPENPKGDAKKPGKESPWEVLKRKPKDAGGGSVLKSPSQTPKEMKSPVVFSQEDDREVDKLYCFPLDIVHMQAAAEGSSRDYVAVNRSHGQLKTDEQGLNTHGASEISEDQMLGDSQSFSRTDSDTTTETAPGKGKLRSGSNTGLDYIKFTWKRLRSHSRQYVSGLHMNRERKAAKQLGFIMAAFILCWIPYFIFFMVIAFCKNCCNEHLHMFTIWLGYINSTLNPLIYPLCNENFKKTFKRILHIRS
The target in the next data set is T1, 5-HT2C (Homo sapiens, UniProt P28335).
T1 sequence (P28335 33-458): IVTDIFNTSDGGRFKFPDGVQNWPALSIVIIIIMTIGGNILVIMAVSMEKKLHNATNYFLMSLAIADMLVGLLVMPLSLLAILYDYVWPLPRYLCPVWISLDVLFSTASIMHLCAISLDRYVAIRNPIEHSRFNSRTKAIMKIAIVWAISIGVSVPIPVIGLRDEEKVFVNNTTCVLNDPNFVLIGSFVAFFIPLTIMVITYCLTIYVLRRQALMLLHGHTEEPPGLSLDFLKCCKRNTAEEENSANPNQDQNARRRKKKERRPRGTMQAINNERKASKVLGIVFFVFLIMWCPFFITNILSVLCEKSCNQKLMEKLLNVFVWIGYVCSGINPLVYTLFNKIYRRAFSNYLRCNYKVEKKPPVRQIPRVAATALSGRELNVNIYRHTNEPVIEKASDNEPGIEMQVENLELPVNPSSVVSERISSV
The conditions noted are these: receptor associated with cognitive and metabolic side effects; cited from earlier work.

The conditions of data set [3]: salt of U.S. Pat. No. 7,183,282; cited from earlier work.
The conditions of data set [4]: salt of U.S. Pat. No. 7,183,282; cited from earlier work. This is another data set of the same source.

With `CN1CCN2c3c(cccc31)[C@@H]1CN(CCCC(=O)c3ccc(F)cc3)CC[C@@H]12` [ITI-007, 4-((6bR,10aS)-3-methyl-2,3,6b,9,10,10a-hexahydro-1H-pyrido[3′,4′:4,5]pyrrolo[1,2,3-de]quinoxalin-8(7H)-yl)-1-(4-fluorophenyl)-1-butanone], the aqueous solubility entry in data set [1] was “poor aqueous solubility”. In the data set on muscarinic, the “binding to muscarinic receptors” value is reported as “negligible binding”. For the same compound, the “NMDA and AMPA signaling in the brain” value with NMDA and AMPA signaling is on record as “enhanced”. In addition, in data set [2], the “solubility in organic solvents” value was “good solubility”. The “binding to H1 histaminergic receptor” value on H1 histaminergic is on record as “negligible binding”. Moreover, the “binding to 5-HT2C receptor” value on 5-HT2C is on record as “negligible binding”.

With `CN1CCN2c3c(cccc31)C1CN(CCCC(=O)c3ccc(F)cc3)CCC12.Cl` (centres unmarked) [hydrochloride salt form of ITI-007], in data set [3], the “hygroscopicity (in words)” value is on record as “hygroscopic”. In data set [4], the “stability (in words)” value is “poor stability”.
